Structures can show the parent of a compound that is named as a salt.
What was measured:
KRAS-G12D and SOS1 = molecular target: T1, KRAS-G12D and SOS1 (Homo sapiens, UniProt P01116, G12D); assay: Inhibition of KRAS-G12D/SOS1 binding (Cisbio binding kit, 665/615 ratio), Effect Embodiment A; settings: read-out: GTP-KRAS-G12D:SOS1 IC50
T1 construct: purchased
Outline: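 Compounds are tested over eleven threefold dilution steps in duplicate, with final DMSO at 1%.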

KRAS_G12D and cRAF = molecular target: T2, KRAS_G12D and cRAF (Homo sapiens, UniProt P01116, G12D); assay: Inhibition of KRAS_G12D/cRAF binding (Cisbio binding kit, 665/615 ratio), Effect Embodiment B; settings: read-out: GTP-KRAS-G12D:CRAF IC50
T2 construct: purchased
Experimental: (§1) Similarly, the first dilution point of the compound to be tested was its storage solution, and the solution was 3-fold diluted, with 11+0 points of dilution. Echo was used to transfer 0.2 μL gradient diluted solution of the compounds into a 384-well plate, with 2 duplicated wells for each compound, and the final concentration of DMSO was 1%. The solution was centrifuged for 1 min at 1000 rpm/min.
(§2) IC50 of the compounds was fitted by Graphpad Prism 8 nonlinear regression equation: […]
(§3) The IC50 (half inhibitory concentration) of the compound was obtained by using the following nonlinear fitting formula: […]

KRAS_WT and SOS1 = molecular target: T3, KRAS_WT and SOS1 (Homo sapiens, UniProt P01116); assay: Inhibition of KRAS_WT/SOS1 binding (Cisbio binding kit, 665/615 ratio), Effect Embodiment C; settings: read-out: GTP-KRAS-WT:SOS1 IC50
T3 construct: purchased
Experimental: The inhibitory ability of small molecule compounds on the binding activity of KRAS_WT and SOS1 was examined by a drug screening system based on the combination of KRAS_WT and SOS1.
as §1, §2, §3

T2 sequence (P01116 1-188 isoform P01116-2 G12D): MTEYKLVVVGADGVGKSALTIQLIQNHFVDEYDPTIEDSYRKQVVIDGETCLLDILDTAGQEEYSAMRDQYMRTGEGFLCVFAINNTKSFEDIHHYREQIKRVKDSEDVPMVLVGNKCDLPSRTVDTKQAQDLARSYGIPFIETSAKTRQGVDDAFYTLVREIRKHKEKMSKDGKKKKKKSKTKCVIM
T1 sequence (P01116 1-188 isoform P01116-2 G12D): as above
T3 sequence (P01116 1-188 isoform P01116-2): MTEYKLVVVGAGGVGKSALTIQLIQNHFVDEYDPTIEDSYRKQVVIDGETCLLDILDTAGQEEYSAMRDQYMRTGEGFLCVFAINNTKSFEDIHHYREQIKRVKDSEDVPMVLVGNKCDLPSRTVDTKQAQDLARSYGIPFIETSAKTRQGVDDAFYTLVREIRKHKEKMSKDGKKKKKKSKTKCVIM

Compound | IC50 (KRAS-G12D and SOS1) [nM] | IC50 (KRAS_G12D and cRAF) [nM] | IC50 (KRAS_WT and SOS1) [nM]
CO[C@H](COc1nc(N2CC3CCC(C2)N3)c2cc(Cl)c(-c3cc(O)cc4ccccc34)c(F)c2n1)CN1C2CCC1COC2 (single isomer, unassigned) [Compound 184, (4R or S)-4-(2-((2S)-3-(3-oxa-8-azabicyclo[3.2.1]octan-8-yl)-2-methoxypropoxy)-4-((1R,5S)-3,8-diazabicyclo[3.2.1]octan-3-yl)-6-chloro-8-fluoroquinazolin-7-yl)naphthalen-2-ol diformate] | 113 | 461 | 
C[C@@H](COc1nc(N2CC3CCC(C2)N3)c2cc(Cl)c(-c3cc(B(O)O)cc4ccccc34)c(F)c2n1)CN1C2CCC1COC2 (single isomer, unassigned) [Compound 256, (4-((7S or 7R)-2-((2R)-3-(3-oxa-8-azabicyclo[3.2.1]octan-8-yl)-2-methylpropoxy)-4-((1R,5S)-3,8-diazabicyclo[3.2.1]octan-3-yl)-6-chloro-8-fluoroquinazolin-7-yl)naphthalen-2-yl)boronic acid ditrifluoroacetate] | 92.1 | 358 | 
CN(C)C1CN(c2nc(N3CCNCC3)c3cc(Cl)c(-c4cc(O)cc5ccccc45)c(F)c3n2)C1 (single isomer, unassigned) [Comparative embodiment a, reference compound] | 1350 | 7310 | 
CC(F)(COc1nc(N2CC3CCC(C2)N3)c2cc(Cl)c(-c3cc(O)cc4ccccc34)c(F)c2n1)CN1C2CCC1COC2 (single isomer, unassigned) [Compound 208b, (4S or 4R)-4-(2-((2(S or R)-3-(3-oxa-8-azabicyclo[3.2.1]octan-8-yl)-2-fluoro-2-methylpropoxy)-4-((1R,5S)-3,8-diazabicyclo[3.2.1]octan-3-yl)-6-chloro-8-fluoroquinazolin-7-yl)naphthalen-2-ol formate] | 97.5 | 272 | 
CN(C)C1CN(c2nc(N3CCC4NCCC43)c3cc(Cl)c(-c4cc(O)cc5ccccc45)c(F)c3n2)C1 (single isomer, unassigned) [Compound 36, 4-((S or R)-6-chloro-2-(3-(dimethylamino)azetidin-1-yl)-8-fluoro-4-((3aS,6aS or 3aR,6aR)-hexahydropyrrolo [3,2-b]pyrrole-1(2H)-yl)quinazolin-7-yl)naphthalen-2-ol] | 277 |  | > 100000
C[C@@H](COc1nc(N2CC3CCC(C2)N3)c2cc(Cl)c(-c3cc(O)cc4ccccc34)c(F)c2n1)CN1CC(C)(C)OC(C)(C)C1 (single isomer, unassigned) [Compound 217, 4-((S or R)-4-((1R,5S)-3,8-diazabicyclo[3.2.1]octan-3-yl)-6-chloro-8-fluoro-2-((R)-2-methyl-3-(2,2,6,6-tetramethylmorpholinyl)propoxy)quinazolin-7-yl)naphthalen-2-ol formate] | 191 |  | 
CN(C)C1CN(c2nc(N=S3(=O)CCC(N)CC3)c3cc(Cl)c(-c4cc(O)cc5ccccc45)c(F)c3n2)C1 (single isomer, unassigned) [Compound 72a, (4R or S)-4-amino-1-(((R or S)-6-chloro-2-(3-(dimethylamino)azetidin-1-yl)-8-fluoro-7-(3-hydroxynaphthalen-1-yl)quinazolin-4-yl)imino)hexahydro-1-thiopyran 1-oxide] | > 200000 |  | 
CCc1cccc2cc(O)cc(-c3c(F)cc4c(N5CC6CCC(C5)N6)nc(OCCCN5C6CCC5COC6)nc4c3F)c12 (single isomer, unassigned) [Compound 271b, 4-((7R or 7S)-2-(3-(3-oxa-8-azabicyclo[3.2.1]octan-8-yl)propoxy)-4-((1R,5S)-3,8-diazabicyclo[3.2.1]octan-3-yl)-6,8-difluoroquinazolin-7-yl)-5-ethylnaphthalen-2-ol diformate] | 9410 |  | 
CCc1c(F)ccc2cc(O)cc(-c3c(Cl)cc4c(N5CC6CCC(C5)N6)nc(OC[C@H](C)CN5C6CCC5COC6)nc4c3F)c12 (single isomer, unassigned) [Compound 233a, 4-((7S or 7R)-2-((2R)-3-(3-oxa-8-azabicyclo[3.2.1]octan-8-yl)-2-methylpropoxy)-4-((1R,5S)-3,8-diazabicyclo[3.2.1]octan-3-yl)-6-chloro-8-fluoroquinazolin-7-yl)-5-ethyl-6-fluoronaphthalen-2-ol formate] | 3280 |  | 
Nc1cc(-c2c(Cl)cc3c(N4C[C@H]5CC[C@@H](C4)N5)nc(OCCCN4C5CCC4COC5)nc3c2F)c2ccccc2c1 (single isomer, unassigned) [Compound 192b, 4-((7S or 7R)-2-(3-(3-oxa-8-azabicyclo[3.2.1]octan-8-yl)propoxy)-4-((1R,5S)-3,8-diazabicyclo[3.2.1]octan-3-yl)-6-chloro-8-fluoroquinazolin-7-yl)naphthalen-2-amine tritrifluoroacetate] | 186 | 431 | 
CCc1cccc2cc(O)cc(-c3c(F)cc4c(N5CC6CCC(C5)N6)nc(OCCCN5CCOC[C@H]5C)nc4c3F)c12 (single isomer, unassigned) [Compound 282b, (R or S)-4-(4-((1R,5S)-3,8-diazacyclo[3.2.1]octan-3-yl)-6,8-difluoro-2-(3-((R)-3-methylmorpholinyl)propoxy)quinazolin-7-yl)-5-ethylnaphthalen-2-ol dihydrochloride] | 5070 |  | 
CN(C)C1CN(c2nc(N3CC(N(C)C)C3)c3cc(Cl)c(-c4cc(O)cc5ccccc45)c(F)c3n2)C1 (single isomer, unassigned) [Compound 9b, (S or R)-4-(6-chloro-2,4-bis(3-(dimethylamino)azetidin-1-yl)-8-fluoro-7-yl)naphthalen-2-ol] | > 200000 |  | 

Other lines, results leading:

IC50 (KRAS-G12D and SOS1) [nM] | IC50 (KRAS_G12D and cRAF) [nM] | IC50 (KRAS_WT and SOS1) [nM] | Compound
17.4 | 21.6 |  | CC[C@@H]1CN(C[C@@H](C)COc2nc(N3CC4CCC(C3)N4)c3cc(Cl)c(-c4cc(O)cc5ccccc45)c(F)c3n2)C[C@H](CC)O1 (single isomer, unassigned) [Compound 219, 4-((S or R)-4-((1R,5S)-3,8-diazabicyclo[3.2.1]octan-3-yl)-6-chloro-2-((R)-3-((2R,6S)-2,6-diethylmorpholinyl)-2-methylpropoxy)-8-fluoroquinazolin-7-yl)naphthalen-2-ol formate]
44.2 |  | 847 | CN(C)C1CN(c2nc(N3C[C@H]4CC[C@@H](C3)N4)c3cnc(-c4cc(O)cc5ccccc45)c(F)c3n2)C1 [Compound 78, 4-(4-((1R,5S)-3,8-diazabicyclo[3.2.1]octan-3-yl)-2-(3-(dimethylamino)azetidin-1-yl)-8-fluoropyridine[4,3-d]pyrimidin-7-yl)naphthalen-2-ol]
67.9 | 154 |  | C[C@@H](COc1nc(N2CC3CCC(C2)N3)c2cc(Cl)c(-c3cc(O)cc4ccccc34)c(F)c2n1)CN1C[C@@H](C)OC[C@@H]1C (single isomer, unassigned) [Compound 226, 4-((S or R)-4-((1R,5S)-3,8-diazabicyclo[3.2.1]octan-3-yl)-6-chloro-2-((R)-3-((2R,5S)-2,5-dimethylmorpholinyl)-2-methylpropoxy)-8-fluoroquinazolin-7-yl)naphthalenol formate]
42.5 | 109 |  | CC(F)(COc1nc(N2CC3CCC(C2)N3)c2cc(Cl)c(-c3cc(O)cc4ccccc34)c(F)c2n1)CN1C2CCC1COC2 (single isomer, unassigned) [Compound 208a, ((4S or 4R)-4-(2-((2(R or S)-3-(3-oxa-8-azabicyclo[3.2.1]octan-8-yl)-2-fluoro-2-methylpropoxy)-4-((1R,5S)-3,8-diazabicyclo[3.2.1]octan-3-yl)-6-chloro-8-fluoroquinazolin-7-yl)naphthalen-2-ol formate]
19.3 | 29.6 |  | C[C@@H](COc1nc(N2CC3CCC(C2)N3)c2cc(Cl)c(-c3cc(O)cc4ccccc34)c(F)c2n1)CN1C[C@H](C)O[C@@H](C)C1 (single isomer, unassigned) [Compound 220, 4-((S or R)-4-((1R,5S)-3,8-diazabicyclo[3.2.1]octan-3-yl)-6-chloro-2-((R)-3-((2S,6S)-2,6-dimethylmorpholinyl)-2-methylpropoxy)-8-fluoroquinazolin-7-yl)naphthalen-2-ol formate]
90.9 | 293 |  | Oc1cc(-c2c(Cl)cc3c(N4CC5CCC(C4)N5)nc(OCC(CN4C5CCC4COC5)C4CC4)nc3c2F)c2ccccc2c1 (single isomer, unassigned) [Compound 209b, 4-((7S or 7R))-2-(2(S or R))-3-(3-oxa-8-azabicyclo[3.2.1]octan-8-yl)-2-cyclopropylpropoxy)-4-((1R,5S)-3,8-diazabicyclo[3.2.1]octan-3-yl)-6-chloro-8-fluoroquinazolin-7-yl)naphthalen-2-ol diformate]
91.9 | 579 |  | Oc1cc(-c2c(Cl)cc3c(N4CC5CCC(C4)N5)nc(OCC(CN4C5CCC4COC5)C(F)(F)F)nc3c2F)c2ccccc2c1 (single isomer, unassigned) [Compound 218a, 4-((7S or 7R)-2-((2S or 2R)-2-((3-oxa-8-azabicyclo[3.2.1]octan-8-yl)methyl)-3,3,3-trifluoropropoxy)-4-((1R,5S)-3,8-diazabicyclo[3.2.1]octan-3-yl)-6-chloro-8-fluoroquinazolin-7-yl)naphthalen-2-ol diformate]
